Results from PubChem BioAssay AID1963441 (Molecular Pharmacology Branch, DTP, NCI, 2024).

Test system: NCI-H1876 complex spheroid growth, % test/control
Assay: Anticancer human tumor NCI-H1876 cell line growth inhibition [Asc];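 also: compound exposure lasted 7 days starting three days after seeding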;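 as to viability, T/C: 100% = DMSO vehicle control wells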
Details: for IC50: curve of first compound; for viability, T/C: stronger effect = lower value
Procedure, shortened: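 Complex spheroids combining tumor cells with HUVEC endothelial cells and human MSCs, at 37 degrees C, 5% CO2; agents tested alone or combined, half-log dilutions from at or near clinical Cmax, or 10 microM if Cmax unknown.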

Cc1nc(N2CCC3(CC2)COC(C)C3N)c(CO)nc1Sc1ccnc(N)c1Cl (centres undefined) + CNC(C)C(=O)NC1CN(S(=O)(=O)c2cccc(S(=O)(=O)N3CCC4CCC(C(=O)NC(c5ccccc5)c5ccccc5)N4C(=O)C(NC(=O)C(C)NC)C3)c2)CCC2CCC(C(=O)NC(c3ccccc3)c3ccccc3)N2C1=O
IC50 (second compound 0.00316 µM): > 3 µM | IC50 (second compound 0.01 µM): > 3 µM | IC50 (second compound 0.0316 µM): > 3 µM | IC50 (second compound 0.1 µM): > 3 µM | IC50 (second compound 0.316 µM): > 3 µM | IC50 (second compound 1 µM): > 3 µM | viability, T/C (second compound 0.00316 µM, first compound 0.00949 µM): 100% | viability, T/C (second compound 0.00316 µM, first compound 0.03 µM): 92.7% | viability, T/C (second compound 0.00316 µM, first compound 0.0949 µM): 91.2% | viability, T/C (second compound 0.00316 µM, first compound 0.3 µM): 80.7% | viability, T/C (second compound 0.00316 µM, first compound 0.949 µM): 92.6% | viability, T/C (second compound 0.00316 µM, first compound 3 µM): 79.8% | viability, T/C (second compound 0.01 µM, first compound 0.00949 µM): 91.7% | viability, T/C (second compound 0.01 µM, first compound 0.03 µM): 91.9% | viability, T/C (second compound 0.01 µM, first compound 0.0949 µM): 92.7% | viability, T/C (second compound 0.01 µM, first compound 0.3 µM): 81.2% | viability, T/C (second compound 0.01 µM, first compound 0.949 µM): 85.7% | viability, T/C (second compound 0.01 µM, first compound 3 µM): 92.1% | viability, T/C (second compound 0.0316 µM, first compound 0.00949 µM): 94.4% | viability, T/C (second compound 0.0316 µM, first compound 0.03 µM): 86.1% | viability, T/C (second compound 0.0316 µM, first compound 0.0949 µM): 98.8% | viability, T/C (second compound 0.0316 µM, first compound 0.3 µM): 84.8% | viability, T/C (second compound 0.0316 µM, first compound 0.949 µM): 87.6% | viability, T/C (second compound 0.0316 µM, first compound 3 µM): 89% | viability, T/C (second compound 0.1 µM, first compound 0.00949 µM): 93.9% | viability, T/C (second compound 0.1 µM, first compound 0.03 µM): 88.4% | viability, T/C (second compound 0.1 µM, first compound 0.0949 µM): 82.9% | viability, T/C (second compound 0.1 µM, first compound 0.3 µM): 86.5% | viability, T/C (second compound 0.1 µM, first compound 0.949 µM): 86.4% | viability, T/C (second compound 0.1 µM, first compound 3 µM): 84.3% | viability, T/C (second compound 0.316 µM, first compound 0.00949 µM): 94% | viability, T/C (second compound 0.316 µM, first compound 0.03 µM): 93.8% | viability, T/C (second compound 0.316 µM, first compound 0.0949 µM): 87.9% | viability, T/C (second compound 0.316 µM, first compound 0.3 µM): 92.7% | viability, T/C (second compound 0.316 µM, first compound 0.949 µM): 85.9% | viability, T/C (second compound 0.316 µM, first compound 3 µM): 77.2% | viability, T/C (second compound 1 µM, first compound 0.00949 µM): 94% | viability, T/C (second compound 1 µM, first compound 0.03 µM): 91.8% | viability, T/C (second compound 1 µM, first compound 0.0949 µM): 94.4% | viability, T/C (second compound 1 µM, first compound 0.3 µM): 90.5% | viability, T/C (second compound 1 µM, first compound 0.949 µM): 84.5% | viability, T/C (second compound 1 µM, first compound 3 µM): 74.8%

COc1c(OCCCN2CCOCC2)ccc2c3n(c(=NC(=O)c4cnc(N)nc4)nc12)CCN3 + CNC(C)C(=O)NC1CN(S(=O)(=O)c2cccc(S(=O)(=O)N3CCC4CCC(C(=O)NC(c5ccccc5)c5ccccc5)N4C(=O)C(NC(=O)C(C)NC)C3)c2)CCC2CCC(C(=O)NC(c3ccccc3)c3ccccc3)N2C1=O
IC50 (second compound 0.00316 µM): > 1 µM | IC50 (second compound 0.01 µM): 0.734 µM | IC50 (second compound 0.0316 µM): 0.789 µM | IC50 (second compound 0.1 µM): 0.701 µM | IC50 (second compound 0.316 µM): > 1 µM | IC50 (second compound 1 µM): 0.901 µM | viability, T/C (second compound 0.00316 µM, first compound 0.00316 µM): 106% | viability, T/C (second compound 0.00316 µM, first compound 0.01 µM): 107% | viability, T/C (second compound 0.00316 µM, first compound 0.0316 µM): 103% | viability, T/C (second compound 0.00316 µM, first compound 0.1 µM): 81.5% | viability, T/C (second compound 0.00316 µM, first compound 0.316 µM): 64.5% | viability, T/C (second compound 0.00316 µM, first compound 1 µM): 49.2% | viability, T/C (second compound 0.01 µM, first compound 0.00316 µM): 105% | viability, T/C (second compound 0.01 µM, first compound 0.01 µM): 106% | viability, T/C (second compound 0.01 µM, first compound 0.0316 µM): 107% | viability, T/C (second compound 0.01 µM, first compound 0.1 µM): 82.1% | viability, T/C (second compound 0.01 µM, first compound 0.316 µM): 63.3% | viability, T/C (second compound 0.01 µM, first compound 1 µM): 45% | viability, T/C (second compound 0.0316 µM, first compound 0.00316 µM): 100% | viability, T/C (second compound 0.0316 µM, first compound 0.01 µM): 103% | viability, T/C (second compound 0.0316 µM, first compound 0.0316 µM): 99.4% | viability, T/C (second compound 0.0316 µM, first compound 0.1 µM): 84.1% | viability, T/C (second compound 0.0316 µM, first compound 0.316 µM): 62.5% | viability, T/C (second compound 0.0316 µM, first compound 1 µM): 46.7% | viability, T/C (second compound 0.1 µM, first compound 0.00316 µM): 102% | viability, T/C (second compound 0.1 µM, first compound 0.01 µM): 101% | viability, T/C (second compound 0.1 µM, first compound 0.0316 µM): 98.6% | viability, T/C (second compound 0.1 µM, first compound 0.1 µM): 82.3% | viability, T/C (second compound 0.1 µM, first compound 0.316 µM): 63.8% | viability, T/C (second compound 0.1 µM, first compound 1 µM): 44% | viability, T/C (second compound 0.316 µM, first compound 0.00316 µM): 107% | viability, T/C (second compound 0.316 µM, first compound 0.01 µM): 117% | viability, T/C (second compound 0.316 µM, first compound 0.0316 µM): 93.6% | viability, T/C (second compound 0.316 µM, first compound 0.1 µM): 86.2% | viability, T/C (second compound 0.316 µM, first compound 0.316 µM): 70% | viability, T/C (second compound 0.316 µM, first compound 1 µM): 56.4% | viability, T/C (second compound 1 µM, first compound 0.00316 µM): 105% | viability, T/C (second compound 1 µM, first compound 0.01 µM): 109% | viability, T/C (second compound 1 µM, first compound 0.0316 µM): 96.6% | viability, T/C (second compound 1 µM, first compound 0.1 µM): 86.2% | viability, T/C (second compound 1 µM, first compound 0.316 µM): 67.5% | viability, T/C (second compound 1 µM, first compound 1 µM): 48.2%
